Common to all, as to format: in vivo
Experiment [1] concerns panelists. Kind of experiment: Confirmation of umami enhancing effect in sodium inosinate solution. The conditions noted are these: 10 ppb added to aqueous 0.1 mass % sodium inosinate solution; 5 panelists. From the text: Well-trained 5 panelists tasted an aqueous solution of 0.1 mass % sodium inosinate (5′-IMP⋅2Na), and aqueous solutions prepared by adding to the aqueous 0.1 mass % sodium inosinate solution, 10 ppb of any of the invention products 1 to 6, for organoleptic evaluation in point of umami.
Well-trained 5 panelists tasted an aqueous solution of 0.1 mass % sodium inosinate (5′-IMP⋅2Na), and an aqueous solution prepared by adding thereto 10 ppb of 2-(3-benzyloxypropyl)pyridine (invention product 101), for organoleptic evaluation in point of umami.
Well-trained 5 panelists tasted (1) 0.1 mass % sodium inosinate (5′-IMP⋅2Na) and (2) an aqueous solution of 0.1 mass % sodium inosinate and 5 ppb, as 2-(3-benzyloxypropyl)pyridine therein, of the invention product 201, for organoleptic evaluation in point of umami.

Experiment [2] concerns panelists. Kind of experiment: Addition to soup broth for udon noodle. The conditions noted are these: 0.05 ppm added to commercial soup broth for udon noodle; 100 ml diluted with 200 ml hot water; 5 panelists. Here is the method:
0.05 ppm of any of the invention products 1 to 6 was added to commercially-available soup broth for udon noodle (tripe strength). 200 ml of hot water was added to 100 ml of each of the added soup broth and the non-added soup broth, and well-trained 5 panelists tasted them for organoleptic evaluation in point of umami.
0.05 ppm of 2-(3-benzyloxypropyl)pyridine (invention product 101) was added to commercially-available soup broth for udon noodle (tripe strength). 200 ml of hot water was added to 100 ml of each of the added soup broth and the non-added soup broth, and well-trained 5 panelists tasted them for organoleptic evaluation in point of umami.
0.05 ppm as 2-(3-benzyloxypropyl)pyridine therein of the invention product 201 was added to commercially-available soup broth for udon noodle (tripe strength). 200 ml of hot water was added to 100 ml of each of the added soup broth and the non-added soup broth, and well-trained 5 panelists tasted them for organoleptic evaluation in point of umami.

In experiment [3] the test system is panelists. Kind of experiment: Confirmation of umami imparting and saltiness enhancing effect in 0.3 mass % sodium chloride (evaluation in words). Here is the method: An aqueous 0.3 mass % sodium chloride solution (control), and solutions of 2-(3-benzyloxypropyl)pyridine dissolved in a 0.3 mass % sodium chloride solution to have the concentration shown in Table 17 were prepared. As comparative products, an aqueous 0.3 mass % sodium chloride solution (control), and a solution of a comparative product, 2-(2-benzyloxyethyl)pyridine dissolved in a 0.3 mass % sodium chloride solution to have the same concentration were prepared. Well-trained 5 panelists tasted the solutions for organoleptic evaluation of umami impartment and saltiness enhancement.
An aqueous 0.3 mass % sodium chloride solution (control), and solutions of the invention product 201 or the reference product 202 dissolved in a 0.3 mass % sodium chloride solution to have the concentration as 2-(3-benzyloxypropyl)pyridine therein shown in the following Table 23 were prepared. Well-trained 5 panelists tasted the solutions for organoleptic evaluation of umami impartment and saltiness enhancement.

Experiment [4] deals with panelists. Kind of experiment: Confirmation of umami and saltiness enhancement in edible salt and MSG solution. The note with it: 10 ppb added to aqueous 0.3 mass % edible salt and 0.03 mass % sodium glutamate (MSG); 5 panelists. From the text: Well-trained 5 panelists tasted an aqueous solution of 0.3 mass % edible salt and 0.03 mass % sodium glutamate (MSG), and aqueous solutions prepared by adding to the aqueous solution, 10 ppb of any of the invention products 1 to 6, for organoleptic evaluation in point of umami and saltiness enhancement.
Well-trained 5 panelists tasted an aqueous solution of 0.3 mass % edible salt and 0.03 mass % sodium glutamate (MSG), and an aqueous solution prepared by adding to the aqueous solution, 10 ppb of 2-(3-benzyloxypropyl)pyridine (invention product 101), for organoleptic evaluation in point of umami and saltiness enhancement.
Well-trained 5 panelists tasted an aqueous solution of 0.3 mass % edible salt and 0.03 mass % sodium glutamate (MSG), and an aqueous solution prepared by adding to the aqueous solution, 10 ppb, as 2-(3-benzyloxypropyl)pyridine therein, of the invention product 201 or the reference product 202, for organoleptic evaluation in point of umami and saltiness enhancement.

Experiment [5] relates to panelists. Kind of experiment: Flavor evaluation of ethanol solution (bottle mouth and flavor paper). The conditions noted are these: 0.1% ethanol solution, average evaluation of 5 panelists. As to the method: A […] ethanol solution of the invention products 1 to 6 prepared in Examples 1 to 6 was prepared as an evaluation solution. The evaluation solution was prepared in a sample bottle. Regarding the flavor of the sample smelling from the bottle mouth and the flavor of a flavor paper prepared by infiltrating the evaluation solution into a paper, well-trained 5 panelists tested the solution for flavor evaluation.
A 0.1% ethanol solution of the invention product 101 (2-(3-benzyloxypropyl)pyridine) prepared in Example 101 was prepared as an evaluation solution. The evaluation solution was prepared in a sample bottle. Regarding the flavor of the sample smelling from the bottle mouth and the flavor of a flavor paper prepared by infiltrating the evaluation solution into a paper, well-trained 5 panelists tested the solution for flavor evaluation. A typical evaluation of the product is as follows.

Experiment [6] has as its system panelists. Kind of experiment: Confirmation of umami enhancing effect: comparison with edible salt and 0.05 mass % MSG solution. The conditions noted are these: 10 ppb with 0.3 mass % edible salt in water; 5 panelists; Example 110. From the text: Well-trained 5 panelists tasted an aqueous solution of 0.3 mass % edible salt and 0.05 mass % sodium glutamate (MSG), and an aqueous solution of 0.3 mass edible salt and 10 ppb of 2-(3-benzyloxypropyl)pyridine (invention product 101), for organoleptic evaluation of umami.
Well-trained 5 panelists tasted (1) an aqueous solution of 0.3 mass % edible salt and 0.05 mass % sodium glutamate (MSG), and (2) and an aqueous solution of 0.3 mass % edible salt and […], as 2-(3-benzyloxypropyl)pyridine therein, of the invention product 201, for organoleptic evaluation in point of umami.

In experiment [7] the test system is panelists. Kind of experiment: Confirmation of sweetness enhancing effect in sucrose solution. The note with it: 5 ppb added to aqueous 3 mass % sucrose solution; 5 panelists. The source says: Well-trained 5 panelists tasted an aqueous 3 mass % sucrose solution, and aqueous solutions prepared by adding to the aqueous 3 mass % sucrose solution, 5 ppb of any of the invention products 1 to 6, for organoleptic evaluation in point of sweetness.
Well-trained 5 panelists tasted an aqueous 3 mass % sucrose solution, and an aqueous solution prepared by adding thereto 5 ppb of 2-(3-benzyloxypropyl)pyridine (invention product 101), for organoleptic evaluation in point of sweetness.
Well-trained 5 panelists tasted (1) an aqueous 3 mass % sucrose solution and (2) an aqueous solution prepared by adding […], as 2-(3-benzyloxypropyl)pyridine therein, of the invention product 201 to the aqueous 3 mass % sucrose solution, for organoleptic evaluation in point of sweetness.

Experiment [8] has as its system panelists. Kind of experiment: Confirmation of umami in water (organoleptic evaluation of taste and flavor in words). The conditions noted are these: for Organoleptic Evaluation Taste / Organoleptic Evaluation Flavor: average of 5 panelists. Here is the method: A solution was prepared by dissolving 2-(3-benzyloxypropyl)pyridine (invention product 101) in water to have a concentration shown in Table 15. As a comparative product, a solution was prepared by dissolving 2-(2-benzyloxyethyl)pyridine (comparative product 1 prepared in Comparative Example 1) to have the same concentration. Well-trained 5 panelists tasted the solutions and non-added water for organoleptic evaluation of taste and flavor.
The invention product 101 and the comparative product 1 were individually diluted with ethanol to have a proper concentration, and then further diluted with water to prepare an aqueous solution of 2-(3-benzyloxypropyl)pyridine (invention product 101 produced in Example 101) and that of 2-(2-benzyloxyethyl)pyridine (comparative product synthesized in Comparative Example 1) each having a concentration shown in the following Table 21. Well-trained panelists tasted the solution having a different concentration and non-added water for organoleptic evaluation in point of taste and flavor. […]

[9] abbreviates: in 0.3 mass % sodium chloride solution, Example 108.
Where [10] appears, read: aqueous solution, Reference Example 201.

SMILES strings stand for the structures.

Experimental findings from US10894772B2, “Flavor modulator having pyridine derivative or salt thereof as active ingredient” (T. HASEGAWA CO., LTD., priority 2015, dated 2021) are described below.

With `c1ccc(COCCCc2ccccn2)cc1` [invention product 101, 2-(3-benzyloxypropyl)pyridine], the “umami compared with the non-added solution” value with panelists [1] was “stronger umami”. For the same molecule, the “umami, saltiness and sweetness compared with non-added soup broth” value in the experiment with panelists [2] was “stronger umami, saltiness and sweetness”. Further, in the experiment on panelists [3] (1 ppb in 0.3 mass % sodium chloride solution, average of 5 panelists, Example 108), the “Organoleptic Evaluation (umami impartment and saltiness enhancement)” value was “Slightly umami as compared with control”. In addition, the “concentration providing umami in 0.3 mass % sodium chloride solution relative to that of the solution in water” value in the experiment with panelists [3] (Example 108) and with panelists [3] (Example 203) was “about 1/10” throughout. In addition, the “concentration to realize the same degree of umami intensity relative to that of 2-(2-benzyloxyethyl)pyridine” value in the experiment with panelists [3] (setting [9]) was “about 1/10”. Besides, in the experiment on panelists [3] (setting [9]), the “umami imparting effect relative to 2-(2-benzyloxyethyl)pyridine (comparative product 1)” value is on record as “about 10 times”. The “umami and saltiness compared with the non-added solution” value with panelists [4] was “stronger umami and saltiness”. For the same molecule, the Flavor Evaluation entry in the experiment on panelists [5] is “somewhat herbal, green and nutty flavor of natural impression”. Also, in the experiment on panelists [6], the “umami compared with aqueous 0.3 mass % edible salt and 0.05 mass % sodium glutamate (MSG)” value is on record as “umami of almost the same level”. Further, the “sweetness compared with the non-added solution” value with panelists [7] is listed as “stronger sweetness”. In addition, the “Organoleptic Evaluation Taste” value in the experiment with panelists [8] (0.1 ppm dissolved in water, Example 107) is “Weakly umami”; in the experiment with panelists [8] (0.1 ppm, diluted with ethanol, then with water, Reference Example 201) it was “Weakly umami”; in the experiment on panelists [8] (10 ppb dissolved in water, Example 107), “Slightly umami”; in the experiment on panelists [8] (10 ppb, diluted with ethanol, then with water, Reference Example 201), “Slightly umami”; with panelists [8] (20 ppm dissolved in water, Example 107), “Strongly umami”; in the experiment with panelists [8] (20 ppm, diluted with ethanol, then with water, Reference Example 201), “Strongly umami”. Further, the “Organoleptic Evaluation Flavor” value in the experiment with panelists [8] (2 ppb dissolved in water, Example 107) is “Nothing at all”; in the experiment with panelists [8] (2 ppb, diluted with ethanol, then with water, Reference Example 201) it was “Nothing at all”. For the same molecule, the “concentration to provide the same umami intensity relative to that of 2-(2-benzyloxyethyl)pyridine” value in the experiment with panelists [8] (setting [10]) is recorded as “about 1/10”; with panelists [8] (in water, Example 107), “about 1/10”. Besides, in the experiment on panelists [8] (setting [10]), the “umami imparting effect relative to 2-(2-benzyloxyethyl)pyridine” value was about 10 times.
